Measurements from ChEMBL document CHEMBL1201862, “PubChem BioAssay data set” (2004).
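Growth conditions: 96-well plates. Treatment: test compound, 48 hours, 5 concentrations. Analysis: linear interpolation between bracketing concentrations; unreached endpoints set to highest concentration. GI50: concentration for 50% inhibition of growth.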 Activity calls are given as the source filed them. Cut-off read from the data, not from the text of the source: active = GI50 up to about 1.1 µM and inactive = higher.

Tests used:
Assay in all cases: inhibition of tumour cell growth, NCI panel, 48 h
SNB-19 = test system: SNB-19
HL-60 = test system: HL-60
HCT-15 = test system: HCT-15
SF-295 = test system: SF-295
PC-3 = test system: PC-3
Malme-3M = test system: Malme-3M
SW-620 = test system: SW-620
HOP-62 = test system: HOP-62
SN12C = test system: SN12C
MOLT-4 = test system: MOLT-4
UO-31 = test system: UO-31
CCRF-CEM = test system: CCRF-CEM
EKVX = test system: EKVX
786-0 = test system: 786-0
U-251 = test system: U-251
UACC-257 = test system: UACC-257
COLO 205 = test system: COLO 205
OVCAR-8 = test system: OVCAR-8
NCI-H23 = test system: NCI-H23
NCI/ADR-RES = test system: NCI/ADR-RES
IGROV-1 = test system: IGROV-1
A549 = test system: A549
LOX IMVI = test system: LOX IMVI
OVCAR-3 = test system: OVCAR-3
Hs-578T = test system: Hs-578T
UACC-62 = test system: UACC-62
A498 = test system: A498
NCI-H226 = test system: NCI-H226
HT-29 = test system: HT-29
DU-145 = test system: DU-145
K562 = test system: K562
KM12 = test system: KM12
BT-549 = test system: BT-549
ACHN = test system: ACHN
RXF 393 = test system: RXF 393
SF-268 = test system: SF-268
MDA-N = test system: MDA-N
SK-MEL-5 = test system: SK-MEL-5
SK-MEL-2 = test system: SK-MEL-2
SK-MEL-28 = test system: SK-MEL-28
MCF7 = test system: MCF7
RPMI-8226 = test system: RPMI-8226
T47D = test system: T47D
MDA-MB-231 = test system: MDA-MB-231
NCI-H522 = test system: NCI-H522
MDA-MB-435 = test system: MDA-MB-435
OVCAR-4 = test system: OVCAR-4
M14 = test system: M14
TK-10 = test system: TK-10
HCT-116 = test system: HCT-116
CAKI-1 = test system: CAKI-1
OVCAR-5 = test system: OVCAR-5
NCI-H460 = test system: NCI-H460
HCC 2998 = test system: HCC 2998
HOP-92 = test system: HOP-92
SF-539 = test system: SF-539
SK-OV-3 = test system: SK-OV-3
SNB-75 = test system: SNB-75

## Cc1cccc(N2C(=O)C3c4[nH]c5ccccc5c4C4CCC(C(C)(C)C)CC4C3C2=O)c1 (stereo not given)
SNB-19
  GI50: 13.2 µM (inactive)
HL-60
  GI50: 46.3 µM (inactive)
HCT-15
  GI50: 29.4 µM
SF-295
  GI50: 9.29 µM (inactive)
PC-3
  GI50: 12.4 µM (inactive)
Malme-3M
  GI50: 13 µM (inactive)
SW-620
  GI50: 11.8 µM (inactive)
HOP-62
  GI50: 3.54 µM (inactive)
SN12C
  GI50: 14.2 µM (inactive)
MOLT-4
  GI50: 8.83 µM (inactive)
UO-31
  GI50: 15.3 µM (inactive)
CCRF-CEM
  GI50: 8.57 µM (inactive)
EKVX
  GI50: 14.4 µM (inactive)
786-0
  GI50: 3.63 µM (inactive)
U-251
  GI50: 17.3 µM (inactive)
UACC-257
  GI50: 18.7 µM (inactive)
COLO 205
  GI50: 11.9 µM (inactive)
OVCAR-8
  GI50: 3.5 µM (inactive)
NCI-H23
  GI50: 16 µM (inactive)
NCI/ADR-RES
  GI50: 15.7 µM (inactive)
IGROV-1
  GI50: 4.13 µM (inactive)
A549
  GI50: 10.6 µM (inactive)
LOX IMVI
  GI50: 3.32 µM (inactive)
OVCAR-3
  GI50: 14 µM (inactive)
Hs-578T
  GI50: 9.98 µM (inactive)
UACC-62
  GI50: 19.5 µM (inactive)
A498
  GI50: 13.1 µM (inactive)
NCI-H226
  GI50: 18.7 µM (inactive)
HT-29
  GI50: 13.5 µM (inactive)
DU-145
  GI50: 12.4 µM (inactive)
K562
  GI50: 5.89 µM (inactive)
KM12
  GI50: 11.9 µM (inactive)
BT-549
  GI50: 19 µM (inactive)
ACHN
  GI50: 4.95 µM (inactive)
RXF 393
  GI50: 12.4 µM (inactive)
SF-268
  GI50: 4.27 µM (inactive)
MDA-N
  GI50: 15.3 µM (inactive)
SK-MEL-5
  GI50: 15.1 µM (inactive)
SK-MEL-2
  GI50: 18.2 µM (inactive)
SK-MEL-28
  GI50: 16.3 µM (inactive)
MCF7
  GI50: 12 µM (inactive)
RPMI-8226
  GI50: 12.7 µM (inactive)
T47D
  GI50: 26.5 µM (inactive)
MDA-MB-231
  GI50: 9.53 µM (inactive)
NCI-H522
  GI50: 11.1 µM (inactive)
MDA-MB-435
  GI50: 15.2 µM (inactive)
OVCAR-4
  GI50: 12.9 µM (inactive)
M14
  GI50: 13.3 µM (inactive)
TK-10
  GI50: 14.2 µM (inactive)
HCT-116
  GI50: 9.29 µM (inactive)
CAKI-1
  GI50: 13.1 µM (inactive)
OVCAR-5
  GI50: 16.8 µM (inactive)
NCI-H460
  GI50: 6.19 µM (inactive)

## CSc1ccc(C=C2N=C(c3ccccc3)N(c3cc(C(=O)c4ccccc4)ccc3N3C(=O)/C(=C/c4ccc(SC)cc4)N=C3c3ccccc3)C2=O)cc1
SNB-19
  GI50: > 100 µM (inactive)
HL-60
  GI50: 8.04 µM (inactive)
HCT-15
  GI50: 61.4 µM
SF-295
  GI50: 44.1 µM (inactive)
PC-3
  GI50: 40 µM (inactive)
HCC 2998
  GI50: 46 µM (inactive)
HOP-92
  GI50: 80.7 µM (inactive)
SW-620
  GI50: > 100 µM (inactive)
HOP-62
  GI50: 79.8 µM (inactive)
SN12C
  GI50: 76.6 µM (inactive)
MOLT-4
  GI50: 23.7 µM (inactive)
UO-31
  GI50: 48.4 µM (inactive)
CCRF-CEM
  GI50: 5.69 µM (inactive)
EKVX
  GI50: > 100 µM (inactive)
786-0
  GI50: 69.3 µM (inactive)
U-251
  GI50: 27 µM (inactive)
UACC-257
  GI50: 89.9 µM (inactive)
COLO 205
  GI50: 56.9 µM (inactive)
OVCAR-8
  GI50: 39.4 µM (inactive)
NCI/ADR-RES
  GI50: 46 µM (inactive)
IGROV-1
  GI50: 81.3 µM (inactive)
SF-539
  GI50: 22.6 µM (inactive)
A549
  GI50: 43.5 µM (inactive)
LOX IMVI
  GI50: 32.1 µM (inactive)
SK-OV-3
  GI50: > 100 µM (inactive)
OVCAR-3
  GI50: 22.2 µM (inactive)
Hs-578T
  GI50: 52.7 µM (inactive)
UACC-62
  GI50: 44.9 µM (inactive)
A498
  GI50: 71.8 µM (inactive)
HT-29
  GI50: 81.3 µM (inactive)
DU-145
  GI50: 49.9 µM (inactive)
K562
  GI50: 46 µM (inactive)
KM12
  GI50: 40 µM (inactive)
BT-549
  GI50: 45.6 µM (inactive)
ACHN
  GI50: 52.4 µM (inactive)
SF-268
  GI50: 53.2 µM (inactive)
MDA-N
  GI50: 93.1 µM (inactive)
SK-MEL-5
  GI50: 37.6 µM (inactive)
SK-MEL-2
  GI50: 36.1 µM (inactive)
SK-MEL-28
  GI50: > 100 µM (inactive)
MCF7
  GI50: > 100 µM (inactive)
RPMI-8226
  GI50: 25.4 µM (inactive)
T47D
  GI50: 34.5 µM (inactive)
MDA-MB-231
  GI50: 80.5 µM (inactive)
MDA-MB-435
  GI50: 31.8 µM (inactive)
OVCAR-4
  GI50: 40 µM (inactive)
M14
  GI50: 76.9 µM (inactive)
SNB-75
  GI50: 16 µM (inactive)
TK-10
  GI50: 51.1 µM (inactive)
HCT-116
  GI50: 59.3 µM (inactive)
CAKI-1
  GI50: 56.1 µM (inactive)
OVCAR-5
  GI50: > 100 µM (inactive)
NCI-H460
  GI50: 51.2 µM (inactive)

## COc1c(-c2nc3ccc(N4CCN(C)CC4)nc3[nH]2)cc(OC)c2c1nc(COC(C)=O)n2C
SNB-19
  GI50: 90.2 µM (inactive)
HCT-15
  GI50: > 100 µM
SF-295
  GI50: > 100 µM (inactive)
PC-3
  GI50: 94.8 µM (inactive)
Malme-3M
  GI50: > 100 µM (inactive)
HOP-92
  GI50: > 100 µM (inactive)
HOP-62
  GI50: > 100 µM (inactive)
SN12C
  GI50: > 100 µM (inactive)
MOLT-4
  GI50: > 100 µM (inactive)
UO-31
  GI50: > 100 µM (inactive)
EKVX
  GI50: > 100 µM (inactive)
786-0
  GI50: > 100 µM (inactive)
U-251
  GI50: 97.1 µM (inactive)
UACC-257
  GI50: 45.3 µM (inactive)
COLO 205
  GI50: 92.7 µM (inactive)
OVCAR-8
  GI50: > 100 µM (inactive)
NCI-H23
  GI50: > 100 µM (inactive)
NCI/ADR-RES
  GI50: > 100 µM (inactive)
IGROV-1
  GI50: > 100 µM (inactive)
A549
  GI50: > 100 µM (inactive)
LOX IMVI
  GI50: > 100 µM (inactive)
SK-OV-3
  GI50: > 100 µM (inactive)
OVCAR-3
  GI50: > 100 µM (inactive)
Hs-578T
  GI50: > 100 µM (inactive)
UACC-62
  GI50: > 100 µM (inactive)
A498
  GI50: > 100 µM (inactive)
NCI-H226
  GI50: > 100 µM (inactive)
HT-29
  GI50: 56.1 µM (inactive)
DU-145
  GI50: 22.6 µM (inactive)
K562
  GI50: > 100 µM (inactive)
KM12
  GI50: 39.4 µM (inactive)
BT-549
  GI50: > 100 µM (inactive)
ACHN
  GI50: > 100 µM (inactive)
RXF 393
  GI50: 19 µM (inactive)
SF-268
  GI50: > 100 µM (inactive)
MDA-N
  GI50: > 100 µM (inactive)
SK-MEL-5
  GI50: > 100 µM (inactive)
SK-MEL-2
  GI50: 33 µM (inactive)
MCF7
  GI50: 65.3 µM (inactive)
T47D
  GI50: > 100 µM (inactive)
MDA-MB-231
  GI50: 51.3 µM (inactive)
NCI-H522
  GI50: > 100 µM (inactive)
MDA-MB-435
  GI50: 71.8 µM (inactive)
OVCAR-4
  GI50: 89.9 µM (inactive)
M14
  GI50: > 100 µM (inactive)
TK-10
  GI50: < 0.01 µM (active)
HCT-116
  GI50: 86.3 µM (inactive)
CAKI-1
  GI50: > 100 µM (inactive)
OVCAR-5
  GI50: > 100 µM (inactive)
